These results are taken from US9796711B2, “Substituted pyrazolo[3,4-b]pyridin-6-carboxylic acids and method of use” (AbbVie S.àr.l., priority 2015, dated 2017).

Test [1] concerns the target T1, ΔF508-CFTR (Homo sapiens, UniProt P13569, DEL508-508).
T1 construct: host or cells: CFBE41o-, doxycycline-inducible
Description: CFTR cell surface levels using HRP-tagged ΔF508-CFTR expressing CFBE cells, in the presence of a co-corrector. In kind it is cell-based. To be noted: HRP-tagged ΔF508-CFTR expressing CFBE cells, in the presence of 3 μM co-corrector; for EC50: read-out: EC50. In short, it runs like this: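 Cells were seeded with 0.5 μg/mL doxycycline and held 68 h at 37 °C. Test compounds plus 3 μM co-corrector (final 0.1% DMSO) were then added for 20 h at 33 °C. Washed cells received HRP substrate, and luminescence was normalized between DMSO and 3 μM co-corrector controls.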

Test [2] concerns the target T1, ΔF508-CFTR. Description: CFTR cell surface levels using HRP-tagged ΔF508-CFTR expressing CFBE cells, intrinsic corrector capacity. In kind it is cell-based. As to conditions: for EC50: read-out: EC50. In short, it runs like this: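 Here the cells express ΔF508-CFTR with horseradish peroxidase inserted in extracellular loop 4, so only rescued channel at the surface gives luminescent signal. Compounds act on their own, 20 h at the reduced temperature of 33 °C; values are percent activity relative to DMSO and a 3 μM corrector.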

The mark [3] stands for this setting: HRP-tagged ΔF508-CFTR expressing CFBE cells, intrinsic corrector capacity (no co-corrector), 33° C., 20 hours.
Where [4] appears, read: HRP-tagged ΔF508-CFTR CFBE41o- cells, compounds alone (intrinsic corrector capacity), 20 hours at 33° C., positive control 3 μM corrector.
Setting [5] is: HRP-tagged ΔF508-CFTR CFBE41o- cells, compounds alone (intrinsic corrector capacity), 20 hours at 33° C.

T1 sequence (P13569 with tags, fused parts or gaps DEL508-508): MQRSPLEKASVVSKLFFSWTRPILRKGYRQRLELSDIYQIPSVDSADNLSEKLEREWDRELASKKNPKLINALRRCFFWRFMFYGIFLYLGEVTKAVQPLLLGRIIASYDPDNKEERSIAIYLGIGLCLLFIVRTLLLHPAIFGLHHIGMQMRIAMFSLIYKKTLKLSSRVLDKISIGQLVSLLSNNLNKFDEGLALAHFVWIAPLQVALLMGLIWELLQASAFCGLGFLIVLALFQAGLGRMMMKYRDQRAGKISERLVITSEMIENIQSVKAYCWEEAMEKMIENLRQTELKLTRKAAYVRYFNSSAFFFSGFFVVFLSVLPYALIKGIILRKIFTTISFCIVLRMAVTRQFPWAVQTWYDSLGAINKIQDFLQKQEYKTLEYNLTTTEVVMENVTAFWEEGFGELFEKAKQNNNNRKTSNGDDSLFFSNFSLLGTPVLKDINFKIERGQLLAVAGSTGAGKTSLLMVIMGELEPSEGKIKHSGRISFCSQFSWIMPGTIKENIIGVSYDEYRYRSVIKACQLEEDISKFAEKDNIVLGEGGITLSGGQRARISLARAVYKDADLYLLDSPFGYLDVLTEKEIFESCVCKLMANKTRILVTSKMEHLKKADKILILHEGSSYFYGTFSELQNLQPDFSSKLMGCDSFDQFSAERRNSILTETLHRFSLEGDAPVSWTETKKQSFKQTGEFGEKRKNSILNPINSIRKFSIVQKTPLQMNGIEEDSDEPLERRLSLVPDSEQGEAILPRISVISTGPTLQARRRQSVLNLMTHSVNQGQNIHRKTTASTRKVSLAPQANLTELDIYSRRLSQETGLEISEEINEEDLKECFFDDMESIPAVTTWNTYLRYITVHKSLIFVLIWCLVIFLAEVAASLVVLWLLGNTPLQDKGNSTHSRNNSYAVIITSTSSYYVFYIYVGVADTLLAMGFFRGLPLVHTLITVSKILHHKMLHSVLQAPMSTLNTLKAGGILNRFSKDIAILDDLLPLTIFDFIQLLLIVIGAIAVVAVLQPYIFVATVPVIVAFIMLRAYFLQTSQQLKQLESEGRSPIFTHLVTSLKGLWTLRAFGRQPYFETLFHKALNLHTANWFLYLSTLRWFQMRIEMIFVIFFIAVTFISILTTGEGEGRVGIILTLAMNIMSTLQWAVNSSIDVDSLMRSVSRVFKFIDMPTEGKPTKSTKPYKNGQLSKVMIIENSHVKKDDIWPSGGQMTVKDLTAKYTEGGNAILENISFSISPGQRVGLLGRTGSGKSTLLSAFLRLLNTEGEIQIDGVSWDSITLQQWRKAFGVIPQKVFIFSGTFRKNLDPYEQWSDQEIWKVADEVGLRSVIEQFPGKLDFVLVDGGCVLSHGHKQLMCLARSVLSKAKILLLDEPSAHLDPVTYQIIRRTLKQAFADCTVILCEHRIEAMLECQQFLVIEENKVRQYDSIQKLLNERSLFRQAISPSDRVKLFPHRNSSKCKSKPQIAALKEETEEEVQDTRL

Regarding `CC(C)c1nn(C2CCCCC2)c2nc(C(=O)O)cc(C3=CC(C)(C)OC(C)(C)C3)c12` [compound 402, 1-cyclohexyl-3-(propan-2-yl)-4-(2,2,6,6-tetramethyl-3,6-dihydro-2H-pyran-4-yl)-1H-pyrazolo[3,4-b]pyridine-6-carboxylic acid], at ΔF508-CFTR [1], the “% Activation” value was found to be 214.5% and the EC50 is 1.11 µM. Also, on ΔF508-CFTR [2] (setting [3]), the “% Activation” value is reported as 43.815% and the EC50 is 0.715 µM.

On to `Cc1nn(-c2ccccc2)c2nc(C(=O)O)cc(N3CCC(N4CCOCC4)CC3)c12` [compound 324, 3-methyl-4-[4-(morpholin-4-yl)piperidin-1-yl]-1-phenyl-1H-pyrazolo[3,4-b]pyridine-6-carboxylic acid], for which the “% Activation” value on ΔF508-CFTR [1] came to 279.1%; on ΔF508-CFTR [2] (setting [4]), 93.32%. In addition, the EC50 on ΔF508-CFTR [1] and at ΔF508-CFTR [2] (setting [5]) was 2.51 µM throughout.

Regarding `Cc1cccc(-n2nc(C(C)C)c3c(-c4ccc(N5CCOCC5)cc4)cc(C(=O)O)nc32)c1` [compound 20, 1-(3-methylphenyl)-4-[4-(morpholin-4-yl)phenyl]-3-(propan-2-yl)-1H-pyrazolo[3,4-b]pyridine-6-carboxylic acid], the “% Activation” value is 450.9% on ΔF508-CFTR [1] and 199.98% on ΔF508-CFTR [2] (setting [4]). For the same compound, the EC50 on ΔF508-CFTR [1] turned out to be 0.371 µM; on ΔF508-CFTR [2] (setting [5]) it was 0.522 µM.

For the compound `O=C(O)c1cc(N2CCN(CC(=O)N3CCCC3)CC2)c2c(C3CCC3)nn(-c3ccccc3)c2n1` [compound 472, 3-cyclobutyl-4-{4-[2-oxo-2-(pyrrolidin-1-yl)ethyl]piperazin-1-yl}-1-phenyl-1H-pyrazolo[3,4-b]pyridine-6-carboxylic acid], on ΔF508-CFTR [1], the “% Activation” value worked out at 292.55% and the EC50 is 1.38 µM. Also, at ΔF508-CFTR [2] (setting [3]), the “% Activation” value is recorded as 144% and the EC50 is 2.49 µM.

With `COCC1CCN(c2cc(C(=O)O)nc3c2c(C(C)C)nn3-c2cc(C)nc(C)c2)CC1` [compound 677, 1-(2,6-dimethylpyridin-4-yl)-4-[4-(methoxymethyl)piperidin-1-yl]-3-(propan-2-yl)-1H-pyrazolo[3,4-b]pyridine-6-carboxylic acid], on ΔF508-CFTR [1], the “% Activation” value is 260.45% and the EC50 was determined as 6.55 µM. Besides, at ΔF508-CFTR [2] (setting [3]), the “% Activation” value worked out at 67.38% and the EC50 amounted to 1.57 µM.

On to `CC(C)N1CCN(C2CCN(c3cc(C(=O)O)nc4c3c(C3CCC3)nn4C3CCCCC3)CC2)CC1` [compound 880, 3-cyclobutyl-1-cyclohexyl-4-{4-[4-(propan-2-yl)piperazin-1-yl]piperidin-1-yl}-1H-pyrazolo[3,4-b]pyridine-6-carboxylic acid], for which, on ΔF508-CFTR [1], the “% Activation” value came to 446.95% and the EC50 is 0.693 µM. Further, on ΔF508-CFTR [2] (setting [3]), the “% Activation” value was 259.5% and the EC50 stood at 0.169 µM.

On to `CC(C)CN1C[C@@H]2CN(c3cc(C(=O)O)nc4c3c(C(C)C)nn4-c3ccc(F)cc3)C[C@@H]2C1` [compound 796, 1-(4-fluorophenyl)-4-[(3aR,6aS)-5-(2-methylpropyl)hexahydropyrrolo[3,4-c]pyrrol-2(1H)-yl]-3-(propan-2-yl)-1H-pyrazolo[3,4-b]pyridine-6-carboxylic acid], for which, on ΔF508-CFTR [1], the “% Activation” value was 358% and the EC50 stood at 1.67 µM. For the same compound, at ΔF508-CFTR [2] (setting [3]), the “% Activation” value was 169.7% and the EC50 amounted to 1.67 µM.

Regarding `COC(C)C1CCN(c2cc(C(=O)O)nc3c2c(C2CCC2)nn3-c2ccccc2)CC1` (stereo not shown) [compound 498, 3-cyclobutyl-4-[4-(1-methoxyethyl)piperidin-1-yl]-1-phenyl-1H-pyrazolo[3,4-b]pyridine-6-carboxylic acid], the “% Activation” value at ΔF508-CFTR [1] was 435.9%; on ΔF508-CFTR [2] (setting [3]), 244.33%. In addition, the EC50 at ΔF508-CFTR [1] came out at 0.0878 µM; at ΔF508-CFTR [2] (setting [3]) it was 0.326 µM.

`CC(C)c1nn(-c2ccc(F)cc2)c2nc(C(=O)O)cc(N3CCC(O)(CN(C)C(C)C)CC3)c12` [compound 798, 1-(4-fluorophenyl)-4-(4-hydroxy-4-{[methyl(propan-2-yl)amino]methyl}piperidin-1-yl)-3-(propan-2-yl)-1H-pyrazolo[3,4-b]pyridine-6-carboxylic acid]: at ΔF508-CFTR [1], the “% Activation” value was 186.5% and the EC50 worked out at 0.864 µM. On ΔF508-CFTR [2] (setting [3]), the “% Activation” value came to 58.3% and the concentration giving a half-maximal response (EC50) came out at 1.67 µM.

In the case of `CN(C)[C@H]1C[C@@H](Oc2cc(C(=O)O)nc3c2c(C2CCC2)nn3-c2ccccc2)C1` [compound 492, 3-cyclobutyl-4-{[cis-3-(dimethylamino)cyclobutyl]oxy}-1-phenyl-1H-pyrazolo[3,4-b]pyridine-6-carboxylic acid], at ΔF508-CFTR [1], the “% Activation” value was 239.55% and the EC50 is 2.51 µM. For the same compound, on ΔF508-CFTR [2] (setting [3]), the “% Activation” value is 84.2% and the concentration giving a half-maximal response (EC50) worked out at 2.37 µM.

For `CCN(CC)CC1(N2CC(Oc3cc(C(=O)O)nc4c3c(C3CCC3)nn4-c3ccccc3)C2)COC1` [compound 646, 3-cyclobutyl-4-[(1-{3-[(diethylamino)methyl]oxetan-3-yl}azetidin-3-yl)oxy]-1-phenyl-1H-pyrazolo[3,4-b]pyridine-6-carboxylic acid], at ΔF508-CFTR [1], the “% Activation” value is reported as 198% and the EC50 was 3.33 µM. On ΔF508-CFTR [2] (setting [3]), the “% Activation” value came out at 45.39% and the EC50 was 3.33 µM.

In the case of `Cc1nn(-c2ccccc2)c2nc(C(=O)O)cc(-c3ccc(N4CC5(COC5)C4)cc3)c12` [compound 126, 3-methyl-4-[4-(2-oxa-6-azaspiro[3.3]heptan-6-yl)phenyl]-1-phenyl-1H-pyrazolo[3,4-b]pyridine-6-carboxylic acid], the “% Activation” value at ΔF508-CFTR [1] came to 319.25%; on ΔF508-CFTR [2] (setting [4]) it was 156.45%. In addition, the EC50 stood at 0.837 µM on ΔF508-CFTR [1] and 1.69 µM on ΔF508-CFTR [2] (setting [5]).

Consider `CC(C)c1nn(-c2cccc(N(C)C)c2)c2nc(C(=O)O)cc(-c3cnc(N4CCOCC4)nc3)c12` [compound 84, 1-[3-(dimethylamino)phenyl]-4-[2-(morpholin-4-yl)pyrimidin-5-yl]-3-(propan-2-yl)-1H-pyrazolo[3,4-b]pyridine-6-carboxylic acid], for which the “% Activation” value on ΔF508-CFTR [1] stood at 541.12%; on ΔF508-CFTR [2] (setting [4]), 289.83%. Also, the EC50 on ΔF508-CFTR [1] turned out to be 0.734 µM; at ΔF508-CFTR [2] (setting [5]) it was 0.829 µM.

Take `COCCOCC1(F)CCN(c2cc(C(=O)O)nc3c2c(C2CCC2)nn3-c2ccccc2)C1` (stereo not shown) [compound 532, 3-cyclobutyl-4-{3-fluoro-3-[(2-methoxyethoxy)methyl]pyrrolidin-1-yl}-1-phenyl-1H-pyrazolo[3,4-b]pyridine-6-carboxylic acid]: at ΔF508-CFTR [1], the “% Activation” value stood at 271.77% and the 50% effective concentration (EC50) was 0.349 µM. For the same compound, at ΔF508-CFTR [2] (setting [3]), the “% Activation” value is recorded as 107.05% and the EC50 came out at 0.707 µM.

Turning to `CC(C)c1nn(-c2cccc(N(C)C)c2)c2nc(C(=O)O)cc(N3CCC(CO)CC3)c12` [compound 331, 1-[3-(dimethylamino)phenyl]-4-[4-(hydroxymethyl)piperidin-1-yl]-3-(propan-2-yl)-1H-pyrazolo[3,4-b]pyridine-6-carboxylic acid], the results for the “% Activation” value on ΔF508-CFTR [1] and at ΔF508-CFTR [2] (setting [4]) were 513.57% and 311.73%, respectively. For the same compound, the figures for the EC50 at ΔF508-CFTR [1] and on ΔF508-CFTR [2] (setting [5]) were 0.39 µM and 1.05 µM, respectively.

As for `CC(=O)N1CCC2CN(c3cc(C(=O)O)nc4c3c(C(C)C)nn4-c3cccc(C)c3)CCC21` (stereo not shown) [compound 255, 4-(1-acetyloctahydro-5H-pyrrolo[3,2-c]pyridin-5-yl)-1-(3-methylphenyl)-3-(propan-2-yl)-1H-pyrazolo[3,4-b]pyridine-6-carboxylic acid], the “% Activation” value turned out to be 302.97% on ΔF508-CFTR [1] and 120.77% at ΔF508-CFTR [2] (setting [4]). For the same compound, the EC50 on ΔF508-CFTR [1] is 0.294 µM; on ΔF508-CFTR [2] (setting [5]), 0.442 µM.

In the case of `CN(C)CCCCOc1cc(C(=O)O)nc2c1c(C1CCC1)nn2-c1ccccc1` [compound 611, 3-cyclobutyl-4-[4-(dimethylamino)butoxy]-1-phenyl-1H-pyrazolo[3,4-b]pyridine-6-carboxylic acid], on ΔF508-CFTR [1], the “% Activation” value is 278.1% and the EC50 is 2.93 µM. Also, at ΔF508-CFTR [2] (setting [3]), the “% Activation” value worked out at 104.6% and the EC50 worked out at 3.33 µM.

For the compound `O=C(O)c1cc(N2CC[C@H](F)[C@H](O)C2)c2c(C3CCC3)nn(-c3ccccc3)c2n1` [compound 535, 3-cyclobutyl-4-[(3R,4S)-4-fluoro-3-hydroxypiperidin-1-yl]-1-phenyl-1H-pyrazolo[3,4-b]pyridine-6-carboxylic acid], the “% Activation” value came out at 205.9% on ΔF508-CFTR [1] and 56.68% at ΔF508-CFTR [2] (setting [3]). Moreover, the EC50 on ΔF508-CFTR [1] worked out at 1.41 µM; on ΔF508-CFTR [2] (setting [3]), 2.85 µM.

`CC(C)c1nn(-c2ccc(F)cc2)c2nc(C(=O)O)cc(N3CCC4(CCN(C)CC4)CC3)c12` [compound 781, 1-(4-fluorophenyl)-4-(9-methyl-3,9-diazaspiro[5.5]undecan-3-yl)-3-(propan-2-yl)-1H-pyrazolo[3,4-b]pyridine-6-carboxylic acid]: the “% Activation” value on ΔF508-CFTR [1] worked out at 368.7%; on ΔF508-CFTR [2] (setting [3]), 154%. Besides, the 50% effective concentration (EC50) at ΔF508-CFTR [1] stood at 1.56 µM; at ΔF508-CFTR [2] (setting [3]), 1.67 µM.
